From US4324801A, “Phenylguanidine acetylsalicylate compounds, process for production thereof, and pharmaceutical composition thereof” (Banyu Pharmaceutical Co. Ltd., priority 1981, dated 1982)
In brackets after ≈: the same amount, converted by molar mass. Like-named read-outs stand apart in the source and are kept apart here.

How the values were obtained:
guinea pigs = assay: Anti-inflammatory activity (ultraviolet irradiation on the back of guinea pigs); type: in vivo, guinea pig (male)
Description: Male guinea pigs having a body weight of about 350 g were used. The back hair of each guinea pig was removed, and ultraviolet light was irradiated onto the back.

mice [1] = details: oral
rats = assay: Antipyretic activity (peptone-induced rise in rectal temperature); type: in vivo, rat (male); details: against the control, oral, 200 mg/kg, rat; 5% peponte s.c. (0.5 ml/100 g)
Description: Male rats having a body weight of 200 to 250 g were used.
^(*) Inhibiting ratio against the control in oral administration at a

[2] = tested on: platelet aggregation in rabbit's platelet-rich plasma (PRP); assay: cells; type: cell-based; details: collagen as aggregation inducer; for IC50: Oryctolagus cuniculus, Platelet, read-out: IC50 (final concentration at 50% inhibition of platelet aggregation)
Experimental: This was measured by the method of Born et al. Specifically, using collagen as an aggregation inducer, each of the compounds shown in Table 1 was tested to measure the inhibition of platelet aggregation in rabbit's platelet-rich plasma (PRP). Aspirin and mefenamic acid were used as controls.
^(*) Final concentration at 50% inhibition of platelet aggregation.

prostaglandin synthesis = assay: Inhibition of prostaglandin synthesis in washed platelet suspension (malondialdehyde formation after arachidonic acid); type: cell-based; details: in vitro; for IC50: read-out: IC50 (final concentration at 50% inhibition of malondialdehyde formation)
Experimental: Each of the compounds shown in Table 1 was tested to measure the inhibition of prostaglandin synthesis in a washed platelet suspension by measuring the malondialdehyde formation following the addition of arachidonic acid in vitro.

in vivo = details: mouse, po
mice [3] = assay: Analgesic activity (acetic acid writhing method); type: in vivo, mouse (male); details: oral, intravenous, intraperitoneal, compared against aspirin and mefenamic acid, writhings counted 5 to 25 minutes after acetic acid
Experimental: The analgesic activity was tested by the acetic acid writhing method. Male mice having a body weight of 18 to 20 g were used. Each of the compounds shown in Table 1 was administered orally, intravenously and intraperitoneally, and then 0.2 ml of a 0.7% aqueous solution of acetic acid was administered intraperitoneally 60 minutes (in oral administration), 10 minutes (in intravenous administration), and 15 minutes (in intraperitoneal administration) after the administration of the test compounds.

[4] = oral, one hour before UV irradiation, guinea pigs

Row | Molecule | ED50 (guinea pigs; [4]) | LD50 (mice [1]) | Inhibiting ratio (rats) | IC50 (final concentration at 50% inhibition of platelet aggregation) [2] | IC50 (final concentration at 50% inhibition of malondialdehyde formation) (prostaglandin synthesis) | LD50 (in vivo) | ED50 (guinea pigs; Cavia porcellus, light or radiation study, po, 1 h) | IC50 [2] | IC50 (prostaglandin synthesis) | analgesic activity (mice [3]) | ED50 (guinea pigs; Cavia porcellus, light or radiation study, 1 h, oral, one hour before UV irradiation, guinea pigs, read-out: ED50)
1 | 2-methylphenylguanidine acetylsalicylate [Compound 2] | 65 mg/kg | 400 mg/kg | 88.1% | 10.5 µg/mL | 3.4 µg/mL | – | – | – | – | – | –
2 | CC(=O)Oc1ccccc1C(=O)O [Aspirin, acetylsalicylic acid, reference compound] | – | – | 81.0% | – | – | 950 mg/kg | 90 mg/kg | 12.6 µg/mL (≈ 69.9 µM) | 2.4 µg/mL (≈ 13.3 µM) | – | –
3 | 4-ethoxyphenylguanidine acetylsalicylate [Compound 13] | 85 mg/kg | 600 mg/kg | 62.9% | 12.2 µg/mL | 4.0 µg/mL | – | – | – | – | – | –
4 | 3-Hydroxy-4-carboethoxyphenylguanidine acetylsalicylate [Compound 17] | – | 1100 mg/kg | – | – | – | – | – | – | – | – | –
5 | 3-methylphenylguanidine acetylsalicylate [Compound 3] | 110 mg/kg | 400 mg/kg | 28.0% | 7.0 µg/mL | 3.7 µg/mL | – | – | – | – | – | –
6 | 3,4-dimethylphenylguanidine acetylsalicylate [Compound 5] | 85 mg/kg | – | – | 2.0 µg/mL | 4.8 µg/mL | – | – | – | – | a marked analgesic activity | –
7 | 4-Methoxyphenylguanidine acetylsalicylate [Compound 11] | 95 mg/kg | 300 mg/kg | 25.2% | 9.6 µg/mL | 3.3 µg/mL | – | – | – | – | – | –
8 | 4-Carbamoylphenylguanidine acetylsalicylate [Compound 16] | 200 mg/kg | 1600 mg/kg | 72.0% | 12.5 µg/mL | 4.5 µg/mL | – | – | – | – | – | –
9 | Cc1cccc(Nc2ccccc2C(=O)O)c1C [Mefenamic acid, reference compound] | – | – | – | – | – | – | – | > 20 µg/mL | 1.4 µg/mL (≈ 5.8 µM) | – | 30 mg/kg
10 | CC(=O)Oc1ccccc1C(=O)O.N=C(N)Nc1ccccc1 [Compound 1] | 140 mg/kg | 400 mg/kg | 74.1% | 6.0 µg/mL | 4.3 µg/mL | – | – | – | – | – | –
11 | 4-methylphenylguanidine acetylsalicylate [Compound 4] | 90 mg/kg | 600 mg/kg | 83.9% | 4.5 µg/mL | 2.4 µg/mL | – | – | – | – | – | –
